For one assay, the target named is T1, CXCR1 receptor (Homo sapiens, UniProt P25024).
T1 sequence (P25024 1-350): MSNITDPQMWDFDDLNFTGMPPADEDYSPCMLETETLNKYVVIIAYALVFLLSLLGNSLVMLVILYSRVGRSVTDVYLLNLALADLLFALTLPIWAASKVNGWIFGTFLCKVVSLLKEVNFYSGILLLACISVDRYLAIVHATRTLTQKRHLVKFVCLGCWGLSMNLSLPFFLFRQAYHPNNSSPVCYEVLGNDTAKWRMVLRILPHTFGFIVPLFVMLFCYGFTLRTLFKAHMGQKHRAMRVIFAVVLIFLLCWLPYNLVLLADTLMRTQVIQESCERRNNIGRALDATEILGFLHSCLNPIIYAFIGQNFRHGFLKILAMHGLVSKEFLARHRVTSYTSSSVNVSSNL
The assay can be described thus: Receptor binding assay ([125I] IL-8 SPA), CXCR1. More on the design: expressed in transfected cells; host or cells: CHO cells (membranes). The note with it: [125I] IL-8 binding, CHO-CXCR1 membranes; read-out: pIC50 against the CXCR1 receptor (converted). On the procedure:
[^125I] IL-8 (human recombinant, IM249) was obtained from Amersham Corp., Arlington Heights, Ill., with specific activity 2000 Ci/mmol. All other chemicals were of analytical grade. High levels of recombinant human CXCR1 and CXCR2 receptors were individually expressed in Chinese hamster ovary (CHO) cells as described in Holmes, et al., Science, 1991, 253, 1278, incorporated herein to the extent required to perform the present assay. The Chinese hamster ovary membranes were prepared according to Haour, et al., J. Biol. Chem., 249 pp 2195-2205 (1974), incorporated herein to the extent required to perform the present assay, except that the homogenization buffer was changed to 40 mM Tris-HCL pH 7.5 containing 1 mM MgSO4, 0.5 mM EDTA (ethylene-diaminetetra-acetic acid), 1 mM PMSF (α-toluene-sulphonyl fluoride), 2.5 mg/L Leupeptin and 0.1 mg/ml Aprotinin. Membrane protein concentration was determined using Bio-Rad Reagent using bovine serum albumin as a standard. All binding assays were conducted using Scintillation Proximity Assay (SPA assay) using wheatgerm agglutinin beads in a 96-well micro plate (optiplate 96, Packard) format. […] The 96-well plates were incubated on a shaking platform for 1 hour. At the end of the incubation the plates were spun for 5 min at 2000 RPM, and counted in a Top Count counter.

The target of assay [1] is T2, CXCR2 receptor (Homo sapiens, UniProt P25025).
T2 sequence (P25025 1-360): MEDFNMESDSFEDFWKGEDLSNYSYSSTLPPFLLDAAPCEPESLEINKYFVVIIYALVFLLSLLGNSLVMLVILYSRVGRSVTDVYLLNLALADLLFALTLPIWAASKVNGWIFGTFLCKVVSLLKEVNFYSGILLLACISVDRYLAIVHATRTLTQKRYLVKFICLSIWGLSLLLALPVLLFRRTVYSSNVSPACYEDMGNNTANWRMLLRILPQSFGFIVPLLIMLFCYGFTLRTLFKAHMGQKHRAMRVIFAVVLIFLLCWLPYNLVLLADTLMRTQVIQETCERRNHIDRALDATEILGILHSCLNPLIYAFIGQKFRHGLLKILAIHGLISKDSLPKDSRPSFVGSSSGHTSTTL
The assay can be described thus: Receptor binding assay ([125I] IL-8 SPA), CXCR2. The arrangement: expressed in transfected cells; host or cells: CHO cells (membranes).
Method: High levels of recombinant human CXCR1 and CXCR2 receptors were individually expressed in Chinese hamster ovary (CHO) cells as described in Holmes, et al., Science, 1991, 253, 1278, incorporated herein to the extent required to perform the present assay. The Chinese hamster ovary membranes were prepared according to Haour, et al., J. Biol. Chem., 249 pp 2195-2205 (1974), incorporated herein to the extent required to perform the present assay, except that the homogenization buffer was changed to 40 mM Tris-HCL pH 7.5 containing 1 mM MgSO4, 0.5 mM EDTA (ethylene-diaminetetra-acetic acid), 1 mM PMSF (α-toluene-sulphonyl fluoride), 2.5 mg/L Leupeptin and 0.1 mg/ml Aprotinin. Membrane protein concentration was determined using Bio-Rad Reagent using bovine serum albumin as a standard. All binding assays were conducted using Scintillation Proximity Assay (SPA assay) using wheatgerm agglutinin beads in a 96-well micro plate (optiplate 96, Packard) format. The CHO-CXCR2 and CHO-CXCR1 membranes were pre-incubated with the beads in binding buffer; 20 mM Bis Tris propane, pH 8 containing 25 mM NaCl, 1 mM MgSO4, 0.1 mM EDTA at 4° C. for 30 min prior to assay. The compound was diluted in 100% DMSO at 20 times the final concentration (final 1 nM to 1000 nM and 5% DMSO). […] At the end of the incubation the plates were spun for 5 min at 2000 RPM, and counted in a Top Count counter.

The test system of a further assay is Sprague-Dawley rats. The assay can be described thus: CXCR2 antagonist effect on oxaliplatin-induced acute sensory injury rat (PWT, von Frey). Format: in vivo. The protocol:
If the animal withdrew or lifted the paw upon stimulation, then a hair with force immediately lower than that tested was used. If no response was observed, then a hair with force immediately higher was tested.

The target in assay [2] is T2, CXCR2 receptor. The assay can be described thus: GPCR Arrestin Assay (DiscoveRX PathHunter), CXCR2. Format: cell-based. More on the design: host or cells: PathHunter CHO cell lines. The protocol:
Certain compounds of the invention were also tested by DiscoveRX Corporation (42501 Albrae Street, Fremont, Calif. 94538, United States) in their GPCR Arrestin Assay to determine their activity against a panel of receptors including CXCR2 and CXCR1. PathHunter CHO cell lines were expanded from freezer stocks according to standard procedures. Cells were seeded in a total volume of 20 μL into white walled, 384-well microplates and incubated at 37° C. for the appropriate time prior to testing. The cells were pre-incubated with antagonist followed by agonist challenge at the EC80 concentration. Intermediate dilution of sample stocks was performed to generate 5× sample in assay buffer. 5 μL of 5× sample was added to cells and incubated at 37° C. or room temperature for 30 minutes. […] Assay signal was generated through a single addition of 12.5 or 15 μL (50% v/v) of PathHunter Detection reagent cocktail, followed by one hour incubation at room temperature. Microplates were read following signal generation with a PerkinElmer Envision™ instrument for chemiluminescent signal detection. Compound activity was analyzed using CBIS data analysis suite (ChemInnovation, Calif.).

Here are results for two compounds from US20170224679A1, “Use of CXCR2 Antagonists For The Prevention and/or Treatment of Chemotherapy Induced Peripheral Neuropathy (CIPN)” (GlaxoSmithKline Intellectual Property Development Limited, priority 2014, published 2017).

Consider `O=C(Nc1ccc(Cl)c(S(=O)(=O)N2CCNCC2)c1O)Nc1cccc(F)c1Cl` [Compound of Formula (A), 1-(4-chloro-2-hydroxy-3-(piperazin-1-ylsulfonyl)phenyl)-3-(2-chloro-3-fluorophenyl)urea], for which the IC50 at CXCR1 receptor was 3160 nM; at CXCR2 receptor [1] ([125I] IL-8 binding, CHO-CXCR2 membranes, read-out: pIC50 against the CXCR2 receptor (converted)) it was 15.8 nM. In addition, on CXCR2 receptor [1] (receptor binding assay a)), the “selectivity for CXCR2 over CXCR1” value worked out at 188 fold. The “oxaliplatin induced mechanical allodynia (PWT) vs oxaliplatin and vehicle group” value is given as “reduced the mechanical allodynia” with Sprague-Dawley rats (Day 3, 5, 20 and 50 mg/kg p.o. b.i.d. from Day -1); “robust reduction of the mechanical allodynia” in the assay with Sprague-Dawley rats (Day 7, 20 and 50 mg/kg p.o. b.i.d. only).

With `CN1CCC(C)(S(=O)(=O)c2c(Cl)ccc(NC(=O)Nc3cccc(F)c3Cl)c2O)CC1` [Compound of Formula (D), 1-(4-chloro-3-((1,4-dimethylpiperidin-4-yl)sulfonyl)-2-hydroxyphenyl)-3-(2-chloro-3-fluorophenyl)urea], at CXCR2 receptor [2] (GPCR Arrestin Assay e)), the “selectivity for CXCR2 over CXCR1” value stood at 29 fold. At CXCR2 receptor [2] (PathHunter CHO cells, agonist at EC80, read-out: pIC50 against the CXCR2 receptor (converted)), the IC50 is 100 nM.
